Laboratory results: publication PMC9663686, “Proline, hydroxyproline, and pyrrolidone carboxylic acid derivatives as highly efficient but reversible transdermal permeation enhancers” (Scientific Reports, 2022)

Assays:
rat skin = settings: 5% concentration (154 mM), topical; cited from earlier work
[1] = Skin viability after topical enhancer application (TTC reduction test); settings: human, freshly excised full thickness human skin, 1% in 60% PG for 24 or 48 h, decrease not significant, read-out: viability of treated skin relative to untreated skin
Procedure: Freshly excised full thickness human skin was incubated in Dulbecco’s modified Eagle’s medium (DMEM, Lonza, Verviers, Belgium) supplemented with 10% heat-inactivated fetal bovine serum (Merck, Darmstadt, Germany), and 1% penicillin/streptomycin + 1% amphotericin B solution (Lonza, Verviers, Belgium) at 37 °C in a humidified atmosphere of 5% CO2. Skin fragments were treated with 1% enhancer in 60% PG, 20 µl/cm^2, 60% PG alone or left untreated for 24 or 48 h. Then the skin was washed rinsed with distilled water and gently blotted dry. Skin viability was evaluated using the 2,3,5-triphenyltetrazolium chloride (TTC) reduction test[57]. Punch biopsies of 5 mm diameter were incubated in 1 ml of 1.5% TTC and 3% sodium succinate in phosphate buffered saline at pH 7.4 at 37 °C under nitrogen in the dark. After 1 h, the skin samples were dried and the dark red formazan derivative produced by the mitochondrial enzymes was extracted with 1 ml of 2-methoxyethanol for 12 h. Absorbance was measured at 490 nm using Tecan Infinite 200 M plate reader (Tecan, Grödig, Austria) and corrected using skin samples devitalized by boiling as a negative control. The viability of skin exposed to the different preparations was expressed as a percentage of untreated control skin.

Row | SMILES | visible changes in rat skin after topical application (rat skin) | viability at 1 % [1] [%]
1 | CCCCCCCCCCCCOC(=O)C1CCCN1C(C)=O (stereo not drawn) [Pro2, N-acetyl proline dodecyl ester] | did not cause any visible changes in rat skin | –
2 | CCCCCCCCCCCCOC(=O)C1CCCN1C(=O)CC (stereo not drawn) [Pro3] | – | ≥ 92
3 | CCCCCCCCCCCCOC(=O)C1CCCN1C(=O)CCC (stereo not drawn) [Pro4] | – | ≥ 92
